Legend:
PtJBMTm3 = assay: Radiochemical methyltransferase assay (detoxification activity) with PtJBMTm3; type: biochemical; conditions: 1 mM substrate, 3 μM 14C-SAM, 25° C., 30 min; for Relative assay activity of PtJBMT M3: relative to the activity of PtJBMTm3 with jasmonic acid set as 1
Method: (§1) The detoxification activity of PtJBMTm3 was determined using radiochemical methyltransferase assays. The assays were performed with a 50 μL volume containing 50 mM Tris-HCl, pH 7.5, 1 mM of individual auxin mimic herbicides dissolved in water, and 3 μM ^14C—S-Adenosyl methionine (SAM) with a specific activity of 51.4 mCi/mmol (Perkin Elmer, Boston, Mass.). The assay was initiated by addition of SAM, maintained at 25° C. for 30 min, and stopped by addition of […] (150 μL). After phase separation by one min centrifugation at 14,000 g, the upper organic phase was counted using a liquid scintillation counter (Beckman Coulter, Fullerton, Calif.) as previously described (D'Auria et al., 2002). Radioactivity counts in the organic phase indicated the amount of synthesized methyl esters, which are the detoxificated products of individual auxin mimic herbicides. The relative assay activities of PtJBMT and PtJBMTm3 with auxin-based herbicides is illustrated in Table 2 (the activity of PtJBMTm3 with jasmonic acid was set as 1).

PtJBMT = assay: Radiochemical methyltransferase assay (detoxification activity) with PtJBMT; type: biochemical; conditions: 1 mM substrate, 3 μM 14C-SAM, 25° C., 30 min; relative to the activity of PtJBMTm3 with jasmonic acid set as 1
Method: as §1

| Structure (SMILES) | Relative assay activity of PtJBMT M3 (PtJBMTm3) | Relative assay activity of PtJBMT (PtJBMT) | Relative assay activity of PtJBMT M3 (reference, set as 1) (PtJBMTm3; reference value set as 1) |
| --- | --- | --- | --- |
| CC(Oc1ccc(Cl)cc1Cl)C(=O)O (centres unmarked) [dichlorprop] | 73.0% | 7.3% |  |
| Nc1c(Cl)c(Cl)nc(C(=O)O)c1Cl [picloram] | 78.1% | 3.7% |  |
| O=C(O)c1c(Cl)ccc(Cl)c1Cl [2,3,6 Trichloro-benzoic acid] | 75.4% | 15.0% |  |
| O=C(O)Cc1c[nH]c2cccc(Cl)c12 [4-Cl-IAA] | 33.6% | 1.1% |  |
| Cc1cc(Cl)ccc1OCC(=O)O [MCPA] | 70.0% | 3.5% |  |
| CC(C)(Oc1ccc(Cl)cc1)C(=O)O [PCIB] | 96.9% | 8.0% |  |
| O=C(O)Cc1cccc2ccccc12 [NAA] | 91.8% | 7.8% |  |
| Nc1c(Cl)c(F)nc(OCC(=O)O)c1Cl [fluroxypyr] | 4.2% | 0.6% |  |
| O=C(O)Cc1ccccc1 [PAA] | 58.3% | 0.8% |  |
| O=C(O)COc1cc(Cl)c(Cl)cc1Cl [2,4,5-T] | 25.5% | 0.4% |  |
| O=C(O)c1nc(Cl)ccc1Cl [clopyralid] | 94.1% | 17.1% |  |
| COc1c(Cl)ccc(Cl)c1C(=O)O [dicamba] | 73.9% | 2.3% |  |
| Cc1cc(Cl)ccc1OC(C)C(=O)O (centres unmarked) [mecoprop] | 87.5% | 12.8% |  |
| Cc1cc(Cl)ccc1OCCCC(=O)O [MCPB] | 11.0% | 0.1% |  |
| O=C(O)COc1ccc(Cl)cc1Cl [2,4-D, 2,4-dichlorophenoxyacetic acid] | 57.5% | 1.7% |  |
| O=C(O)CCCc1c[nH]c2ccccc12 [IBA] | 30.3% | 0.8% |  |
| O=C(O)CCCOc1ccc(Cl)cc1Cl [2,4-DB] | 38.7% | 0.5% |  |
| CC/C=C\C[C@H]1C(=O)CC[C@@H]1CC(=O)O [Jasmonic acid] |  | 85.1% | 1 |
| O=C(O)c1c(Cl)ccc2cc(Cl)cnc12 [quinclorac] | 91.3% | 11.2% |  |

— patent publication US20100205696A1, “NOVEL HERBICIDE RESISTANCE GENE” (UNIVERSITY OF TENNESSEE RESEARCH FOUNDATION, priority 2009, published 2010)
